Marks after values point to notes of the source that are not given here.
Columns and labels:
MS S. aureus = settings: 24 hours, Gram Positive
[1] = Liposome disruption (OD600), normal membrane model
Experimental: Liposomes were prepared by extrusion techniques according to previous methods. Briefly, all liposomes were prepared in 2×concentration (5 mM). Healthy and cancer liposomal mimicking membranes were prepared with 72:23:[…] phosphatidylcholine (POPC):phosphatidylethanolamine (DOPE):phosphatidylserine (POPS) lipids, respectively. The lipids dissolved in chloroform were mixed in proper molar proportions before being evaporated under a stream of argon. The lipid film was then dried completely by lyophilization overnight. […] The extruded liposomes were then dialyzed in 3500 MWCO dialysis cassettes against water. Parallel optical density experiments were conducted measuring the absorbance at 600 nm (OD600) to track the kinetics and specificity of membrane disruption. Measurements were taken every 30 seconds for the first 10 min., followed by measurements every minute until 15 min.

[2] = system: T24 (urinary bladder transitional cell carcinoma) cells; experiment: MTT cytotoxicity assay, T24
[3] = system: A549 (lung carcinoma) cells; experiment: MTT cytotoxicity assay, A549; type: cell-based, human
Experimental: All cells were cultured using standard culture conditions at 37° C., 5% CO2, and 95% humidity. A549 (CCL-185), OVCAR-3 (HTB-161), T24 (HTB-4), and NCI/ADR-RES were cultured in RPMI-1640 supplemented with 10% v/v fetal bovine serum (FBS), 2 mM L-glutamine (L-Gln), 10,000 units penicillin/mL, 10 mg/mL streptomycin, and 25 μg/mL amphotericin B. HUVEC (PCS-100-010) cells were cultured in Vascular Cell Basal Media (PCS-100-030) supplemented with an Endothelial Cell Growth Kit-VEGF (PCS-100-041) and 10 μg/mL gentamycin in culture flasks coated with 0.1% gelatin by incubating at 37° C. for 15 min. NL20 (CRL-2503) cells were cultured in Ham's F12 supplemented with 1.5 g/L sodium bicarbonate, 2.7 g/L glucose, 2.0 mM L-glutamine, 0.1 mM nonessential amino acids, 0.005 mg/ml insulin, 10 ng/ml epidermal growth factor, 0.001 mg/ml transferrin, 500 ng/ml hydrocortisone and 4% fetal bovine serum, as advised by American Type Culture Collection (ATCC).
Viability was calculated by comparing to an untreated control.
All experiments were performed with n>6.
Cell viability experiments were completed n>6 in two independent experiments and analyzed using GraphPad Prism 8 to fit curves and calculate IC50 values using inhibitor vs. normalized response non-linear regression model. IC50 values are reported as mean values±standard deviation. […] Pore size frequency distribution was completed by ImageJ FIJI on 4 independent cells and n=30 pores from SEM images. UV-Vis OD600 and CD spectra are means of 5 and 3 replicates, respectively and reported as mean±standard deviation. Individual UV-Vis and CD spectra, as well as fluorescent confocal and TEM micrographs, shown are representative plots from three individual experiments. CD data is with a variance in ellipticity of 0.2 millidegrees at each wavelength. Relative fluorescence data calculated from fluorescent confocal images represents the average of 10 independent measurements±standard deviation. For spheroid volume analysis, a Kruskal-Wallis test and Dunn's multiple comparisons test was performed using GraphPad Prism 8.

OVCAR-3 cells = experiment: Annexin V-PI flow cytometry apoptosis assay; type: cell-based, human; settings: IC50 of MAD1 (14 μM)
Experimental: OVCAR-3 cells were first seeded at 2×10^5 cells/well in 12 well plates. The cells were then allowed to adhere overnight. […] Wells were left in 5% serum media for negative and compensation controls. Cells were then trypsinized, washed in cold PBS, and centrifuged at 3,000 rpm at 15° C. for 5 min. After the supernatant was aspirated, the cells were resuspended in 100 μL of Annexin V Binding Buffer. In the dark, 5 μL of FITC Annexin V and 10 μL of Propidium Iodine solution were added to the cells, with compensation controls of a negative control with no staining, a FITC Annexin V only control, and a PI only control. The cells were then vortexed gently to combine and allowed to incubate for 15 min. at room temperature. 400 μL of Annexin V Binding Buffer was then added to each tube and stored on ice prior to analyzing by flow cytometry.
Flow cytometry was conducted on a LSRFortessa Flow Cytometer (BD Biosciences, Franklin Lakes, N.J.) using 488 nm and 532 nm lasers for FITC and PE-Texas Red signals to detect Annexin V and PI, respectively. Compensation was completed for 10,000 cells, and experiments were conducted over 20,000 cells.

B. subtilis (168) = settings: 24 hours, Gram Positive

H-KRWHWWRRHWVVW-NH2 [MAD1]
MIC (μM) MS S. aureus (MS S. aureus): >80^a μM
disruption/interaction with normal (healthy) membrane liposomes [1]: did not lyse
IC50 ([2]; read-out: Cancerous (IC50, μM) T24, 48 hours treatment, MTT): > 100 µM
cytotoxic activity towards T24 ([2]; result in words): inactive
IC50 ([3]; 48 hours treatment, MTT, read-out: Cancerous (IC50, μM) A549): 36.2 µM
Therapeutic Index A549 ([3]; IC50-HUVEC/IC50-A549): 2.8
cytotoxic activity against A549 ([3]; result in words): moderate activity
cell necrosis (% of population) (OVCAR-3 cells; 2 hours): 16%
late apoptotic phenotype (% of cells) (OVCAR-3 cells; 2 hours): 65%
early apoptotic stage (% of cells) (OVCAR-3 cells; 24 hours): 19%
late apoptotic stage (% of cells) (OVCAR-3 cells; 24 hours): 77%
MIC (μM) B. subtilis (168) (B. subtilis (168)): 0.2 µM

Source: patent publication US11571454B2, “Anticancer peptides that synergistically enhance chemotherapeutic potency” (The Penn State Research Foundation, priority 2017, dated 2023)
